{"source": "patent US20150216948A1", "about": "“CYTOCHROME P450 SUICIDE GENE SYSTEM” (priority 2012, published 2015)", "origin": "cited, not measured here", "details": "5-day infusion regimens, patients with lung and liver cancers", "data": [{"smiles": "CC(O)CCC(=O)c1ccoc1", "note": "(stereo not shown) [4-IPO, 1-[3-furyl]-4-hydroxypentanone]", "values": [{"measurement": "serum concentrations, highly efficient for killing human P427 mutant CYP4B1 transgenic human cells within 72 h", "result": "up to 90 μM"}]}]}
